Laboratory results reported in ChEMBL document CHEMBL3045787, “Synthesis of novel 1,4-naphthoquinone derivatives: antibacterial and antifungal agents” (2013).
Converted amounts (≈) assume the structure as drawn. The source made the active and inactive calls. No cut-off for these calls is given here.

Tests used:
Mycobacterium [1] = experiment: Antibacterial activity against Mycobacterium luteum B-917 assessed as growth inhibition at 0.5% after 24 hr by agar disk diffusion method; format: functional
Aspergillus niger [2] = experiment: Antifungal activity against Aspergillus niger assessed as growth inhibition at 0.5% after 48 to 72 hr by agar disk diffusion method; format: functional
Escherichia coli [3] = experiment: Antibacterial activity against Escherichia coli B 906 assessed as growth inhibition after 24 to 72 hr by serial dilution method; format: functional, organism-based
Mycobacterium [4] = experiment: Antibacterial activity against Mycobacterium luteum B-917 assessed as growth inhibition at 0.1% after 24 hr by agar disk diffusion method; format: functional
Yamadazyma tenuis [5] = experiment: Antifungal activity against Candida tenuis assessed as growth inhibition at 0.5% after 48 to 72 hr by agar disk diffusion method; format: functional
Staphylococcus aureus [6] = experiment: Antibacterial activity against Staphylococcus aureus 209-P assessed as growth inhibition at 0.5% after 24 hr by agar disk diffusion method; format: functional
Staphylococcus aureus [7] = experiment: Antibacterial activity against Staphylococcus aureus 209-P assessed as growth inhibition at 0.1% after 24 hr by agar disk diffusion method; format: functional
Staphylococcus aureus [8] = experiment: Antibacterial activity against Staphylococcus aureus 209-P assessed as growth inhibition after 24 to 72 hr by serial dilution method; format: functional
Yamadazyma tenuis [9] = experiment: Antifungal activity against Candida tenuis assessed as growth inhibition after 24 to 72 hr by serial dilution method; format: functional
Mycobacterium [10] = experiment: Antibacterial activity against Mycobacterium luteum B-917 assessed as growth inhibition after 24 to 72 hr by serial dilution method; format: functional
Escherichia coli [11] = experiment: Antibacterial activity against Escherichia coli B 906 assessed as growth inhibition at 0.5% after 24 hr by agar disk diffusion method; format: functional
Yamadazyma tenuis [12] = experiment: Antifungal activity against Candida tenuis assessed as growth inhibition at 0.1% after 48 to 72 hr by agar disk diffusion method; format: functional
Aspergillus niger [13] = experiment: Antifungal activity against Aspergillus niger assessed as growth inhibition at 0.1% after 48 to 72 hr by agar disk diffusion method; format: functional
Aspergillus niger [14] = experiment: Antifungal activity against Aspergillus niger assessed as growth inhibition after 24 to 72 hr by serial dilution method; format: functional
Escherichia coli [15] = experiment: Antibacterial activity against Escherichia coli B 906 assessed as growth inhibition at 0.1% after 24 hr by agar disk diffusion method; format: functional

| MIC (Escherichia coli [3]) | MIC (Staphylococcus aureus [8]) | MIC (Yamadazyma tenuis [9]) | MIC (Mycobacterium [10]) | MIC (Aspergillus niger [14]) | SMILES | diameter of the inhibition zone (DIZ) (Mycobacterium [1]) [mm] | diameter of the inhibition zone (DIZ) (Aspergillus niger [2]) [mm] | diameter of the inhibition zone (DIZ) (Mycobacterium [4]) [mm] | diameter of the inhibition zone (DIZ) (Yamadazyma tenuis [5]) [mm] | diameter of the inhibition zone (DIZ) (Staphylococcus aureus [6]) [mm] | diameter of the inhibition zone (DIZ) (Staphylococcus aureus [7]) [mm] | diameter of the inhibition zone (DIZ) (Escherichia coli [11]) [mm] | diameter of the inhibition zone (DIZ) (Yamadazyma tenuis [12]) [mm] | diameter of the inhibition zone (DIZ) (Aspergillus niger [13]) [mm] | diameter of the inhibition zone (DIZ) (Escherichia coli [15]) [mm] |
| --- | --- | --- | --- | --- | --- | --- | --- | --- | --- | --- | --- | --- | --- | --- | --- |
| inactive | inactive | 7.8 µg/mL (≈ 13.4 µM) | inactive | 31.2 µg/mL (≈ 53.8 µM) | O=C1C(SCc2ccc(Cl)cc2)=C(N2CCC(C(O)(c3ccccc3)c3ccccc3)CC2)C(=O)c2ccccc21 | 0 | 0 | 0 | 0 | 0 | 0 | 0 | 0 | 0 | 0 |
| inactive | inactive | 31.2 µg/mL (≈ 95.6 µM) | 125 µg/mL (≈ 383 µM) | 15.6 µg/mL (≈ 47.8 µM) | CCOC1=C(Sc2ccc(O)cc2)C(=O)c2ccccc2C1=O | 0 | 0 | 0 | 0 | 0 | 0 | 0 | 0 | 0 | 0 |
| inactive | inactive | inactive | inactive | inactive | O=C1C(Cl)=C(N2CCC(C(O)(c3ccccc3)c3ccccc3)CC2)C(=O)c2ccccc21 | 9 | 0 | 7.5 | 0 | 0 | 0 | 0 | 0 | 0 | 0 |
| inactive | 125 µg/mL (≈ 308 µM) | 7.8 µg/mL (≈ 19.2 µM) | 250 µg/mL (≈ 615 µM) | 7.8 µg/mL (≈ 19.2 µM) | O=C1C(Sc2ccc(O)cc2)=C(Sc2ccc(O)cc2)C(=O)c2ccccc21 | 12.7 | 8 | 7 | 0 | 9.7 | 6 | 0 | 0 | 0 | 0 |
| inactive | inactive | 125 µg/mL (≈ 270 µM) | inactive | 7.8 µg/mL (≈ 16.9 µM) | O=C1C(SCCOc2ccccc2)=C(SCCOc2ccccc2)C(=O)c2ccccc21 | 8 | 0 | 0 | 0 | 0 | 0 | 0 | 0 | 0 | 0 |
